In US11332472B2, “Substituted piperidines as inhibitors of ubiquitin specific protease 7” (LES LABORATOIRES SERVIER, priority 2017, dated 2022):

Target: T1, USP7 (Homo sapiens, UniProt Q93009, C315A)
T1 construct: 0.25 nM His-His-USP7 (aa208-560, [C315A]) was incubated with compound; His-His (N)
Assay: Inhibition of USP7 by Fluorescence Intensity (FLINT) readings, Ubiquitin-Rhodamine-110 substrate
Format: biochemical
Conditions: 0.25 nM His-His-USP7 (aa208-560, [C315A]); compound 60 minutes at 30° C.; 500 nM Ubiquitin-Rhodamine substrate; 11-point curves
Description: USP7 activity was measured using Rhodamine-110 c-terminal labelled Ubiquitin as a substrate (Viva Biosciences). Incubation with USP7 results in the release of Rhodamine-110 leading to an increase in fluorescence which can be used in the continuous measurement of USP7 activity.
The USP7 reactions were performed in a 50 μL volume, in 384 well black solid low binding plates (Corning #3575). The reaction buffer consisted of 100 mM Bicine pH 8.0, 0.01% TritonX 100, 1 mM TCEP, and 10% DMSO.
0.25 nM His-His-USP7 (aa208-560, [C315A]) was incubated with compound (final concentration 10% DMSO) for 60 minutes at 30° C. The reaction was then initiated by the addition of 500 nM Ubiquitin-Rhodamine-10 substrate and the plate read every 3 minutes for 21 minutes to measure the release of Rhodamine-110. Fluorescence Intensity (FLINT) readings were measured using a Biomek Neo plate reader (Ex. 485 nm. Em. 535 nm).
The inhibition of increasing doses of compound was expressed as a percentage reduction in kinetic rate compared to the kinetic rates established between ‘DMSO only’ and ‘total inhibition’ controls (no USP7). The inhibitory concentrations that gave a 50% reduction in kinetic rate (IC50) were determined, from 11-point dose response curves, in XL-Fit using a 4-Parameter Logistic Model (Sigmoidal Dose-Response Model).

T1 sequence (Q93009 208-560 C315A): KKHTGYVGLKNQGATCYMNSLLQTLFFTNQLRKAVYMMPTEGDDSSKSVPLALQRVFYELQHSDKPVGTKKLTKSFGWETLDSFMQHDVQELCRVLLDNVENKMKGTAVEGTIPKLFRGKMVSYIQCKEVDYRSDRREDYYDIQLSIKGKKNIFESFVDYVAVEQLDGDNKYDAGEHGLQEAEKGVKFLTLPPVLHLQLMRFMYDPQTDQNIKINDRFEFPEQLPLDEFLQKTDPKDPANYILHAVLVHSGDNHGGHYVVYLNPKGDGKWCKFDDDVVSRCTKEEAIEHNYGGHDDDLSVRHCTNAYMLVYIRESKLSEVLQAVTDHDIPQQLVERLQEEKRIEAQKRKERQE

Row | SMILES | IC50
1 | O=C([C@@H]1CCCC[C@H]1n1cccc1)N1CCC(O)(Cn2cnc3c(ccn3-c3ccccc3)c2=O)CC1 (racemic) [Example 12, 3-[[4-hydroxy-1-[trans-2-pyrrol-1-ylcyclohexanecarbonyl]-4-piperidyl]methyl]-7-phenyl-pyrrolo[2,3-d]pyrimidin-4-one] | 0.0711 µM
2 | COc1ccc(-n2ccc3c(=O)n(CC4(O)CCN(C(=O)C5C(C)=CCCC5c5cccs5)CC4)cnc32)cc1 (single isomer, unassigned) [Example 60, 3-[[4-hydroxy-1-[trans-2-methy-6-(2-thienyl)cyclohex-2-ene-1-carbonyl]-4-piperidyl]methyl]-7-(4-methoxyphenyl)pyrrolo[2,3-d]pyrimidin-4-one] | 0.725 µM
3 | COc1ccc(-n2ccc3c(=O)n(CC4(O)CCN(C(=O)[C@@H]5C(C)=CCC[C@H]5c5ccsc5)CC4)cnc32)cc1 (single isomer, unassigned) [Example 61, 3-[[4-hydroxy-1-[trans-2-methyl-6-(3-thienyl)cyclohex-2-ene-1-carbonyl]-4-piperidyl]methyl]-7-(4-methoxyphenyl)pyrrolo[2,3-d]pyrimidin-4-one] | 0.0723 µM
4 | COc1ccc(-n2ccc3c(=O)n(CC4(O)CCN(C(=O)[C@@H]5C(C)=CCC[C@H]5c5ccsc5)CC4)cnc32)cc1 (single isomer, unassigned) [Example 62, 3-[[4-hydroxy-1-[trans-2-methyl-6-(3-thienyl)cyclohex-2-ene-1-carbonyl]-4-piperidyl]methyl]-7-(4-methoxyphenyl)pyrrolo[2,3-d]pyrimidin-4-one] | 0.682 µM
5 | COc1ccc(-n2ccc3c(=O)n(CC4(O)CCN(C(=O)C5CCCCC5c5nccn5C)CC4)cnc32)cc1 (single isomer, unassigned) [Example 69, 3-[[4-hydroxy-1-trans-2-(1-methylimidazol-2-yl)cyclohexanecarbonyl]-4-piperidyl]methyl-7-(4-methoxyphenyl)pyrrolo[2,3-d]pyrimidin-4-one] | 10.5 µM
6 | COc1ccc(-n2ccc3c(=O)n(CC4(O)CCN(C(=O)[C@@H]5CCCC[C@H]5c5nccn5C)CC4)cnc32)cc1 (single isomer, unassigned) [Example 70, 3-[[4-hydroxy-1-[trans-2-(1-methylimidazol-2-yl)cyclohexanecarbonyl]-4-piperidyl]methyl]-7-(4-methoxyphenyl)pyrrolo[2,3-d]pyrimidin-4-one] | 9.23 µM
7 | COc1ccc(-n2ccc3c(=O)n(CC4(O)CCN(C(=O)[C@@H]5CCC(F)(F)C[C@H]5c5cccs5)CC4)cnc32)cc1 (single isomer, unassigned) [Example 73, 3-[[1-[trans-4,4-difluoro-2-(2-thienyl)cyclohexanecarbonyl]-4-hydroxy-4-piperidyl]methyl]-7-(4-methoxyphenyl)pyrrolo[2,3-d]pyrimidin-4-one] | 0.0838 µM
8 | O=C([C@@H]1CC(F)(F)CC[C@H]1c1ccccc1)N1CCC(O)(Cn2cnc3c(-c4ccccc4)scc3c2=O)CC1 (single isomer, unassigned) [Example 78, 3-[[1-[trans-5,5-difluoro-2-phenyl-cyclohexanecarbonyl]-4-hydroxy-4-piperidyl]methyl]-7-phenyl-thieno[3,4-d]pyrimidin-4-one] | 10.3 µM
9 | O=C([C@@H]1CC(F)(F)CC[C@H]1c1ccccc1)N1CCC(O)(Cn2cnc3c(-c4ccccc4)scc3c2=O)CC1 (single isomer, unassigned) [Example 79, 3-[[1-[trans-5,5-difluoro-2-phenyl-cyclohexanecarbonyl]-4-hydroxy-4-piperidyl]methyl]-7-phenyl-thieno[3,4-d]pyrimidin-4-one] | 0.0601 µM
10 | CCn1cc([C@@H]2CC(F)(F)CC[C@H]2C(=O)N2CCC(O)(Cn3cnc4c(-c5ccccc5)scc4c3=O)CC2)cn1 (single isomer, unassigned) [Example 81, 3-[[1-[trans-2-(1-ethylpyrazol-4-yl)-4,4-difluoro-cyclohexanecarbonyl]-4-hydroxy-4-piperidyl]methyl]-7-phenyl-thieno[3,4-d]pyrimidin-4-one] | 76.3 µM
11 | O=C([C@@H]1CCC(F)(F)C[C@H]1c1cscn1)N1CCC(O)(Cn2cnc3c(-c4ccccc4)scc3c2=O)CC1 (single isomer, unassigned) [Example 82, 3-[[1-[trans-4,4-difluoro-2-thiazol-4-yl-cyclohexanecarbonyl]-4-hydroxy-4-piperidyl]methyl]-7-phenyl-thieno[3,4-d]pyrimidin-4-one] | 10.1 µM
12 | O=C([C@@H]1CCC(F)(F)C[C@H]1c1cscn1)N1CCC(O)(Cn2cnc3c(-c4ccccc4)scc3c2=O)CC1 (single isomer, unassigned) [Example 83, 3-[[1-[trans-4,4-difluoro-2-thiazol-4-yl-cyclohexanecarbonyl]-4-hydroxy-4-piperidyl]methyl]-7-phenyl-thieno[3,4-d]pyrimidin-4-one] | 0.632 µM
13 | O=C([C@@H]1CCC(F)(F)C[C@H]1c1ccco1)N1CCC(O)(Cn2cnc3c(-c4ccccc4)scc3c2=O)CC1 (single isomer, unassigned) [Example 86, 3-[[1-[trans-4,4-difluoro-2-(2-furyl)cyclohexanecarbonyl]-4-hydroxy-4-piperidyl]methyl]-7-phenyl-thieno[3,4-d]pyrimidin-4-one] | 0.125 µM
14 | O=C([C@@H]1CCC(F)(F)C[C@H]1c1ccsc1)N1CCC(O)(Cn2cnc3c(-c4ccccc4)scc3c2=O)CC1 (single isomer, unassigned) [Example 88, 3-[[1-[trans-4,4-difluoro-2-(3-thienyl)cyclohexanecarbonyl]-4-hydroxy-4-piperidyl]methyl]-7-phenyl-thieno[3,4-d]pyrimidin-4-one] | 0.31 µM
15 | CC1(C)CC[C@@H](C(=O)N2CCC(O)(Cn3cnc4c(-c5ccccc5)scc4c3=O)CC2)[C@H](c2ccccc2)C1 (single isomer, unassigned) [Example 99, 3-[[1-(trans-4,4-dimethyl-2-phenyl-cyclohexanecarbonyl)-4-hydroxy-4-piperidyl]methyl]-7-phenyl-thieno[3,4-d]pyrimidin-4-one] | 0.268 µM
16 | Cn1ccc2c(=O)n(CC3(O)CCN(C(=O)[C@@H]4CCC(F)(F)C[C@H]4c4ccccc4)CC3)cnc21 (single isomer, unassigned) [Example 112, 3-[[1-[trans-4,4-difluoro-2-phenyl-cyclohexanecarbonyl]-4-hydroxy-4-piperidyl]methyl]-7-methyl-pyrrolo[2,3-d]pyrimidin-4-one] | 0.471 µM
17 | CC(C)n1ccc2c(=O)n(CC3(O)CCN(C(=O)[C@@H]4CCC(F)(F)C[C@H]4c4ccccc4)CC3)cnc21 (single isomer, unassigned) [Example 113, 3-[[1-[trans-4,4-difluoro-2-phenyl-cyclohexanecarbonyl]-4-hydroxy-4-piperidyl]methyl]-7-isopropyl-pyrrolo[2,3-d]pyrimidin-4-one] | 0.456 µM
18 | O=C([C@@H]1CCC(F)(F)C[C@H]1c1ccccc1)N1CCC(O)(Cn2cnc3c(ccn3C3CC3)c2=O)CC1 (single isomer, unassigned) [Example 116, 7-cyclopropyl-3-[[1-[trans-4,4-difluoro-2-phenyl-cyclohexanecarbonyl]-4-hydroxy-4-piperidyl]methyl]pyrrolo[2,3-d]pyrimidin-4-one] | 0.205 µM
19 | COc1ccc(-n2ccc3c(=O)n(CC4(O)CCN(C(=O)[C@@H]5CCC(=O)N(C)[C@H]5c5ccccc5)CC4)cnc32)cc1 (single isomer, unassigned) [Example 118, 3-{[4-hydroxy-1-(trans-1-methyl-6-oxo-2-phenylpiperidine-3-carbonyl)piperidin-4-yl]methyl}-7-(4-methoxyphenyl)-3,7-dihydro-4H-pyrrolo[2,3-d]pyrimidin-4-one] | 4.64 µM
20 | COc1ccc(-n2ccc3c(=O)n(CC4(O)CCN(C(=O)C5CCCCN5c5ccccc5)CC4)cnc32)cc1 (centres unmarked) [Example 10, 3-[[4-hydroxy-1-(1-phenylpiperidine-2-carbonyl)-4-piperidyl]methyl]-7-(4-methoxyphenyl)pyrrolo[2,3-d]pyrimidin-4-one] | 0.425 µM
21 | COc1ccc(-n2ccc3c(=O)n(CC4(O)CCN(C(=O)C5CCCN5c5ccccc5)CC4)cnc32)cc1 (centres unmarked) [Example 11, 3-[[4-hydroxy-1-(1-phenylpyrrolidine-2-carbonyl)-4-piperidyl]methyl]-7-(4-methoxyphenyl)pyrrolo[2,9-d]pyrimidin-4-one] | 2.57 µM
22 | O=C(Cc1c[nH]c2ccc(O)cc12)Nc1ccc2ncn(CC3(O)CCN(C(=O)C4CCCCC4c4ccccc4)CC3)c(=O)c2n1 (stereo not drawn) [Example 105, 2-(5-hydroxy-1H-idol-3-yl)-N-[3-[[4-hydroxy-1-(trans-2-phenylcyclohexanecarbonyl)-4-piperidyl]methyl]-4-oxo-pyrido[3,2-d]pyrimidin-6-yl]acetamide] | 0.0153 µM

Tested on: MM 1S multiple myeloma tumour cell line
Assay: In vitro cytotoxicity, MTT assay, MM1S cells
Format: cell-based
Conditions: Homo sapiens, MM1.S, 96 hours exposure
Description: The cytotoxicity studies were evaluated by MTT assay and carried out on MM 1S multiple myeloma or Z138 mantle cell lymphoma tumour cell lines. The cells are distributed onto microplates and exposed to the test compounds for 96 hours. The cell viability is then quantified by a colorimetric assay, the Microculture Tetrazolium Assay (Carmichael et. al., Cancer Res. […], 47, 936-942).

Row | SMILES | IC50
23 | O=C([C@@H]1CCCC[C@H]1n1cccc1)N1CCC(O)(Cn2cnc3c(ccn3-c3ccccc3)c2=O)CC1 (racemic) [Example 12, 3-[[4-hydroxy-1-[trans-2-pyrrol-1-ylcyclohexanecarbonyl]-4-piperidyl]methyl]-7-phenyl-pyrrolo[2,3-d]pyrimidin-4-one] | 0.0345 µM
